Assay results taken from ChEMBL document CHEMBL1201862, “PubChem BioAssay data set” (2004).
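Dose response: 5 concentrations. Exposure: 48 h. Format: 96-well plates. Endpoint: linear interpolation; highest concentration if not reached. GI50: concentration for 50% inhibition of growth.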 Calls of active or inactive are those of the source. Rule as the data show it: active = GI50 up to about 1.1 µM and inactive = higher.

Key:
Test in all cases: DTP human tumour cell line panel, 48 h
UO-31 = system: UO-31
CCRF-CEM = system: CCRF-CEM
M19-MEL = system: M19-MEL
OVCAR-4 = system: OVCAR-4
SK-OV-3 = system: SK-OV-3
MOLT-4 = system: MOLT-4
HOP-62 = system: HOP-62
OVCAR-8 = system: OVCAR-8
A549 = system: A549
K562 = system: K562
UACC-257 = system: UACC-257
HCT-15 = system: HCT-15
HCT-116 = system: HCT-116
SNB-75 = system: SNB-75
NCI-H226 = system: NCI-H226
HL-60 = system: HL-60
Hs-578T = system: Hs-578T
T47D = system: T47D
MDA-N = system: MDA-N
NCI/ADR-RES = system: NCI/ADR-RES

Structure (SMILES) | GI50 (UO-31) | GI50 (CCRF-CEM) | GI50 (M19-MEL) | GI50 (OVCAR-4) | GI50 (SK-OV-3) | GI50 (MOLT-4) | GI50 (HOP-62) | GI50 (OVCAR-8) | GI50 (A549) | GI50 (K562) | GI50 (UACC-257) | GI50 (HCT-15) [µM] | GI50 (HCT-116) | GI50 (SNB-75) | GI50 (NCI-H226) | GI50 (HL-60) | GI50 (Hs-578T) | GI50 (T47D) | GI50 (MDA-N) | GI50 (NCI/ADR-RES)
CC12CCC[C@@](C)(C(=O)OC3OC(CO)C(O)C(O)C3O)[C@H]1CCC13CC4CC(OC4(CO)[C@H]1O)[C@@H]23 (stereo partly specified) | > 100 µM (inactive) | > 100 µM (inactive) | > 100 µM (inactive) | > 100 µM (inactive) | > 100 µM (inactive) | > 100 µM (inactive) | > 100 µM (inactive) | > 100 µM (inactive) | > 100 µM (inactive) | > 100 µM (inactive) | > 100 µM (inactive) | 53.7 | > 100 µM (inactive) | > 100 µM (inactive) | > 100 µM (inactive) |  |  |  |  | 
NC(=S)N/N=C1\CCCC\C1=C/c1ccccc1 | 32.5 µM (inactive) | 30.5 µM (inactive) | 81.1 µM (inactive) | 27 µM (inactive) | > 100 µM (inactive) | 19.6 µM (inactive) | > 100 µM (inactive) | > 100 µM (inactive) | > 100 µM (inactive) | 2.71 µM (inactive) | 17.9 µM (inactive) | 67.1 | 58.2 µM (inactive) | 30.5 µM (inactive) |  | 1.88 µM (inactive) |  |  |  | 
COC(=O)C1C(=O)N(CCc2c[nH]c3ccccc23)C[C@@H]2CCC(=O)C[C@H]12 (stereo partly specified) | > 100 µM (inactive) | > 100 µM (inactive) | > 100 µM (inactive) | > 100 µM (inactive) | > 100 µM (inactive) | > 100 µM (inactive) | > 100 µM (inactive) | > 100 µM (inactive) | > 100 µM (inactive) | > 100 µM (inactive) | > 100 µM (inactive) | > 100 | > 100 µM (inactive) | > 100 µM (inactive) |  | > 100 µM (inactive) |  |  |  | 
COc1ccc(/C=c2/sc3n(c2=O)NC2(CCCCC2)NN=3)cc1 | > 100 µM (inactive) | > 100 µM (inactive) | > 100 µM (inactive) | > 100 µM (inactive) | > 100 µM (inactive) | > 100 µM (inactive) |  | > 100 µM (inactive) | > 100 µM (inactive) | > 100 µM (inactive) |  |  | > 100 µM (inactive) | 92.7 µM (inactive) | > 100 µM (inactive) |  |  |  |  | 
Nc1nc(Cl)c(N)c(NCC2(CO)CCC2)n1 | > 100 µM (inactive) | > 100 µM (inactive) |  | > 100 µM (inactive) | > 100 µM (inactive) | > 100 µM (inactive) | > 100 µM (inactive) | > 100 µM (inactive) | > 100 µM (inactive) | > 100 µM (inactive) | > 100 µM (inactive) | > 100 | > 100 µM (inactive) | > 100 µM (inactive) | > 100 µM (inactive) | > 100 µM (inactive) | > 100 µM (inactive) | 91.8 µM (inactive) | > 100 µM (inactive) | > 100 µM (inactive)
CC12CCC(C(Nc3ccccn3)C1=O)C2(C)C (stereo unspecified) | > 100 µM (inactive) | > 100 µM (inactive) |  | > 100 µM (inactive) | > 100 µM (inactive) | > 100 µM (inactive) | > 100 µM (inactive) | > 100 µM (inactive) | > 100 µM (inactive) | > 100 µM (inactive) | > 100 µM (inactive) | > 100 | > 100 µM (inactive) | 63 µM (inactive) | > 100 µM (inactive) | > 100 µM (inactive) | > 100 µM (inactive) | > 100 µM (inactive) | > 100 µM (inactive) | > 100 µM (inactive)
O=C1CC(=O)c2c(Cl)sc(Cl)c21 | > 100 µM (inactive) | 37.2 µM (inactive) |  | 29.2 µM (inactive) | > 100 µM (inactive) | 34.1 µM (inactive) | > 100 µM (inactive) | 52.2 µM (inactive) | 87.1 µM (inactive) | 40.9 µM (inactive) | > 100 µM (inactive) | 64.4 | > 100 µM (inactive) | > 100 µM (inactive) | 86.1 µM (inactive) | 30.3 µM (inactive) | 33.8 µM (inactive) | > 100 µM (inactive) | > 100 µM (inactive) | > 100 µM (inactive)
CC(=O)NCc1nc(C#N)c(N)o1 | > 100 µM (inactive) | > 100 µM (inactive) |  | > 100 µM (inactive) | > 100 µM (inactive) | > 100 µM (inactive) | > 100 µM (inactive) | > 100 µM (inactive) | > 100 µM (inactive) | > 100 µM (inactive) | > 100 µM (inactive) | > 100 | > 100 µM (inactive) | > 100 µM (inactive) | > 100 µM (inactive) | > 100 µM (inactive) | > 100 µM (inactive) | > 100 µM (inactive) | > 100 µM (inactive) | > 100 µM (inactive)
COCc1nc2c(OC)c(-c3nc4ccc(N5CCN(C)CC5)nc4[nH]3)cc(OC)c2[nH]1 | 56.2 µM (inactive) | 21.2 µM (inactive) |  | 46.1 µM (inactive) | 45.3 µM (inactive) | 37.1 µM (inactive) | 40.1 µM (inactive) | 82.6 µM (inactive) | 46 µM (inactive) | 25.4 µM (inactive) | 24 µM (inactive) | 38.1 | 30.1 µM (inactive) | 18 µM (inactive) | > 100 µM (inactive) | 30.7 µM (inactive) | > 100 µM (inactive) | 53 µM (inactive) | 73.3 µM (inactive) | > 100 µM (inactive)
CCN1CC(C)Cn2c(=O)[nH]c3cc(Br)cc1c32 (stereo unspecified) | 40.1 µM (inactive) | 7.67 µM (inactive) |  | 12.1 µM (inactive) | 27.7 µM (inactive) | 3.05 µM (inactive) | 30.5 µM (inactive) | 23.7 µM (inactive) | 25.6 µM (inactive) | 2.91 µM (inactive) | 76 µM (inactive) | 14.6 | 29.9 µM (inactive) | 11.4 µM (inactive) | 11.9 µM (inactive) | 7.19 µM (inactive) | 11 µM (inactive) | 18.5 µM (inactive) | 4.81 µM (inactive) | 8.05 µM (inactive)
CN(C)CCCNC(=O)c1cc(NS(=O)(=O)c2ccc3c(c2)C(=O)c2ccccc2C3=O)cn1C | 56.4 µM (inactive) | 21.5 µM (inactive) |  | 16.8 µM (inactive) | 92.5 µM (inactive) | 32.7 µM (inactive) | 37.8 µM (inactive) | 40.3 µM (inactive) | 35.9 µM (inactive) | 30 µM (inactive) | 19.2 µM (inactive) | 42.8 | 51.3 µM (inactive) | 30.8 µM (inactive) | 22.9 µM (inactive) | 22.1 µM (inactive) | 76.4 µM (inactive) | 35.2 µM (inactive) | 28.1 µM (inactive) | > 100 µM (inactive)
N#Cc1nc(C(F)(F)F)oc1N | > 100 µM (inactive) | 95.3 µM (inactive) |  | > 100 µM (inactive) | > 100 µM (inactive) | > 100 µM (inactive) | > 100 µM (inactive) | > 100 µM (inactive) | > 100 µM (inactive) | > 100 µM (inactive) | > 100 µM (inactive) | > 100 | > 100 µM (inactive) | > 100 µM (inactive) | > 100 µM (inactive) | > 100 µM (inactive) | > 100 µM (inactive) | > 100 µM (inactive) | > 100 µM (inactive) | > 100 µM (inactive)
O=C(CCC(=O)C1Cc2ccccc2C1=O)Nc1cccc(C(F)(F)F)c1 (stereo unspecified) | > 100 µM (inactive) | > 100 µM (inactive) | > 100 µM (inactive) | > 100 µM (inactive) | > 100 µM (inactive) | > 100 µM (inactive) | > 100 µM (inactive) | > 100 µM (inactive) | > 100 µM (inactive) | > 100 µM (inactive) | > 100 µM (inactive) | > 100 | > 100 µM (inactive) |  | > 100 µM (inactive) | > 100 µM (inactive) |  |  |  | 
Cc1ncn(-c2ccccc2O)c1C | > 100 µM (inactive) | > 100 µM (inactive) |  | > 100 µM (inactive) | > 100 µM (inactive) | > 100 µM (inactive) | > 100 µM (inactive) | > 100 µM (inactive) | > 100 µM (inactive) | > 100 µM (inactive) | 34.9 µM (inactive) | > 100 | > 100 µM (inactive) | > 100 µM (inactive) | > 100 µM (inactive) | > 100 µM (inactive) | > 100 µM (inactive) | > 100 µM (inactive) | > 100 µM (inactive) | > 100 µM (inactive)
CN1CSC(=S)N(c2cccc(C(F)(F)F)c2)C1 | 26.4 µM (inactive) | 30.4 µM (inactive) |  | 19.3 µM (inactive) | 29.4 µM (inactive) | 24.7 µM (inactive) | 26.9 µM (inactive) | 25.4 µM (inactive) | 24.3 µM (inactive) | 24 µM (inactive) | 22.5 µM (inactive) | 18.7 | 34 µM (inactive) | 42.2 µM (inactive) | 24.3 µM (inactive) | 25.5 µM (inactive) | 28.9 µM (inactive) | 31.7 µM (inactive) | 29.2 µM (inactive) | 26.9 µM (inactive)
CCCC1C(=O)Nc2cccc3ncn(c23)C1=O (stereo unspecified) | > 100 µM (inactive) | > 100 µM (inactive) |  | > 100 µM (inactive) | > 100 µM (inactive) | > 100 µM (inactive) | > 100 µM (inactive) | > 100 µM (inactive) | > 100 µM (inactive) | > 100 µM (inactive) | > 100 µM (inactive) | > 100 | > 100 µM (inactive) | 28.8 µM (inactive) | > 100 µM (inactive) | > 100 µM (inactive) | > 100 µM (inactive) | > 100 µM (inactive) | > 100 µM (inactive) | > 100 µM (inactive)
